In US20020026053A1, “Novel 3-(substituted) -2- indolinones compounds and use thereof as inhibitors of protein kinase activity” (priority 1997, published 2002):

Key:
FLK-1 receptor = assay: FLK-1 Assay (cellular/catalytic ELISA, VEGF-stimulated phosphotyrosine); assay type: cell-based; design: concentration or dose not given beside the values; settings: protocol P.110
How it was run: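 NIH3T3 C7#3 cells engineered to express Flk-1 were serum-starved overnight (0.1% FBS), then exposed to compound for 2 h at 37 °C (final dilution 1:200, 0.5% DMSO) before VEGF stimulation. Lysates captured on anti-FLK-1 antiserum plates; phosphotyrosine detected by UB40 antibody/POD-ABTS ELISA versus untreated controls.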

PDGF-R = PDGF-R Assay (cellular ELISA, U1242 cells); assay type: cell-based; design: concentration or dose not given beside the values; settings: protocol P.119
How it was run: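 U1242 cells seeded in 0.5% serum, serum-starved, then exposed to compound for 2 hr at 37°C before 5–10 min ligand stimulation and lysis in HNTG. Lysate captured on receptor-antibody-coated plates; phosphotyrosine detected with polyclonal anti-pTyr, goat anti-rabbit IgG and ABTS/H2O2, A410 (ref 630 nm), versus untreated cells.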

Compound | Flk Kinase % Inhibition (P.110) (FLK-1 receptor) [%] | PDGF Kinase % Inhibition (P.119) (PDGF-R) [%]
CN(C)CCCOc1ccc(C=C2C(=O)Nc3ccc(S(=O)(=O)N4CCOCC4)cc32)cc1 [10739/F09] | 15.6 | 3.3
O=C1Nc2ccc(S(=O)(=O)N3CCOCC3)cc2C1=Cc1ccoc1 [10739/F10] | 12.3 | 4.2
O=C1Nc2ccc(S(=O)(=O)N3CCOCC3)cc2C1=Cc1ccc(CO)o1 [10739/F11] | 11.9 | 0.8
COc1ccc(C=C2C(=O)Nc3ccc(CCCl)cc32)cc1C [10739/G02] | 5.9 | −12.2
O=C1Nc2ccc(CCCl)cc2C1=Cc1cccc(OCc2ccccc2)c1 [10739/G03] | 1.9 | −6.9
O=C1Nc2ccc(CCCl)cc2C1=Cc1ccc(OCc2ccccc2)cc1 [10739/G04] | 4.5 | −3.5
O=C1Nc2ccc(CCCl)cc2C1=CC1COc2ccccc2O1 (stereo not shown) [10739/G05] | 10.7 | −5.9
O=C1Nc2ccc(CCCl)cc2C1=Cc1ccc(O)cc1Cl [10739/G06] | 14.0 | −6.4
O=C1Nc2ccc(CCCl)cc2C1=Cc1cc(O)c(O)c(O)c1 [10739/G07] | −4.9 | 10.1
COc1ccc(Oc2cccc(C=C3C(=O)Nc4ccc(CCCl)cc43)c2)cc1 [10739/G08] | 15.0 | 1.3
CN(C)CCCOc1ccc(C=C2C(=O)Nc3ccc(CCCl)cc32)cc1 [10739/G09] | 3.1 | 13.9
O=C1Nc2ccc(CCCl)cc2C1=Cc1ccoc1 [10739/G10] | −2.0 | −0.6
O=C1Nc2ccc(CCCl)cc2C1=Cc1ccc(CO)o1 [10739/G11] | 9.8 | 7.6
COc1ccc(C=C2C(=O)Nc3c(Br)cc(Br)c(C)c32)cc1C [10739/H02] | 2.2 | −18.6
Cc1c(Br)cc(Br)c2c1C(=Cc1cccc(OCc3ccccc3)c1)C(=O)N2 [10739/H03] | 1.6 | −19.5
Cc1c(Br)cc(Br)c2c1C(=Cc1ccc(OCc3ccccc3)cc1)C(=O)N2 [10739/H04] | 9.9 | −14.2
Cc1c(Br)cc(Br)c2c1C(=Cc1ccc(O)cc1Cl)C(=O)N2 [10739/H06] | 35.6 | −17.1
Cc1c(Br)cc(Br)c2c1C(=Cc1cc(O)c(O)c(O)c1)C(=O)N2 [10739/H07] | −1.4 | 14.9
COc1ccc(Oc2cccc(C=C3C(=O)Nc4c(Br)cc(Br)c(C)c43)c2)cc1 [10739/H08] | 4.0 | −3.5
Cc1c(Br)cc(Br)c2c1C(=Cc1ccoc1)C(=O)N2 [10739/H10] | 15.0 | −13.2
